Source: US20230220021A1, “CYCLIC PEPTIDE INHIBITORS OF PSD-95 AND USES THEREOF” (University of Copenhagen, priority 2020, published 2023)
Where a SMILES comes first, the peptide text is derived from it. [ ]: non-standard residue; d: D form.

Biological target: T1, PSD-95-PDZ2 (Homo sapiens, UniProt P78352)
T1 construct: 7xHis (N); made in house; host or cells: Escherichia coli B21 pLys (for the mutants, 'as previously described')
Assay: Fluorescence polarization (FP) competition assay against cyclic nNOS TAMRA probe
Assay type: binding
Details: FP competition, cyclic nNOS TAMRA probe; mean of triplicates; N.B. = not binding; read-out: Ki

T1 sequence (P78352 160-246 limits assumed): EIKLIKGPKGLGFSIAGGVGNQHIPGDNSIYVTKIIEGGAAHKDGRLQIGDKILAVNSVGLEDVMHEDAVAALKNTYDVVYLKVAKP

Ki | Compound
1760 nM | CC(C)C[C@@H]1NC(=O)[C@H](Cc2c[nH]cn2)NC(=O)[C@H]([C@@H](C)O)NC(=O)[C@H](CCC(N)=O)NC(=O)CNC(=O)[C@H]2CCCN2C(=O)[C@H](CCC(N)=O)NC(=O)[C@H]([C@@H](C)O)NC(=O)[C@H](C(C)C)NC(=O)[C@H](CCCNC(=N)N)NC(=O)[C@H](CCCNC(=N)N)NC(=O)[C@H]([C@@H](C)O)NC(=O)[C@H](CCCCN)NC(=O)[C@@H]2CCCN2C(=O)[C@H]([C@@H](C)O)NC(=O)CNC(=O)[C@H](CC(=O)O)NC(=O)CNC(=O)[C@H]([C@@H](C)O)NC(=O)[C@H](Cc2ccccc2)NC(=O)[C@H]([C@@H](C)O)NC(=O)[C@H]([C@@H](C)O)NC(=O)[C@H](CCC(=O)O)NC1=O [compound 41] (cyclo(THLETTFTGDGTPKTRRVTQ[dP]GQ))

Same assay, conditions: FP inhibition constant normalized to WT value

Relative Ki (Ki mut/Ki WT) | Compound
0.34 | CC[C@H](C)[C@@H]1NC(=O)[C@H]([C@@H](C)O)NC(=O)[C@H](CCCCN)NC(=O)[C@@H]2CCCN2C(=O)[C@H](CC(N)=O)NC(=O)CNC(=O)[C@H](CC(=O)O)NC(=O)CNC(=O)[C@H]([C@@H](C)O)NC(=O)[C@H](Cc2ccccc2)NC(=O)[C@H]([C@@H](C)O)NC(=O)[C@H]([C@@H](C)O)NC(=O)[C@H](CCC(=O)O)NC(=O)[C@H](CC(C)C)NC(=O)[C@H](Cc2c[nH]cn2)NC(=O)[C@H]([C@@H](C)O)NC(=O)[C@H](CCC(N)=O)NC(=O)CNC(=O)[C@H]2CCCN2C(=O)[C@H](CCC(N)=O)NC(=O)[C@H]([C@@H](C)O)NC(=O)[C@H](C(C)C)NC(=O)[C@H](CCCNC(=N)N)NC1=O [compound 40] (cyclo(THLETTFTGDGNPKTIRVTQ[dP]GQ))
1.17 | CC(C)C[C@@H]1NC(=O)[C@H](Cc2c[nH]cn2)NC(=O)[C@H]([C@@H](C)O)NC(=O)[C@H](CCC(N)=O)NC(=O)CNC(=O)[C@H]2CCCN2C(=O)[C@H](CCC(N)=O)NC(=O)[C@H]([C@@H](C)O)NC(=O)[C@H](C(C)C)NC(=O)[C@H](CCCNC(=N)N)NC(=O)[C@H](CCCNC(=N)N)NC(=O)[C@H]([C@@H](C)O)NC(=O)[C@H](CCCCN)NC(=O)[C@@H]2CCCN2C(=O)[C@H]([C@@H](C)O)NC(=O)CNC(=O)[C@H](CC(=O)O)NC(=O)CNC(=O)[C@H]([C@@H](C)O)NC(=O)[C@H](Cc2ccccc2)NC(=O)[C@H]([C@@H](C)O)NC(=O)[C@H]([C@@H](C)O)NC(=O)[C@H](CCC(=O)O)NC1=O [compound 41] (cyclo(THLETTFTGDGTPKTRRVTQ[dP]GQ))
1.07 | CC(C)C[C@@H]1NC(=O)[C@H](Cc2c[nH]cn2)NC(=O)[C@H]([C@@H](C)O)NC(=O)[C@H](CCC(N)=O)NC(=O)CNC(=O)[C@H]2CCCN2C(=O)[C@H](CCC(N)=O)NC(=O)[C@H]([C@@H](C)O)NC(=O)[C@H](C(C)C)NC(=O)[C@H](CCCNC(=N)N)NC(=O)[C@H](Cc2ccc(O)cc2)NC(=O)[C@H]([C@@H](C)O)NC(=O)[C@H](CCCCN)NC(=O)[C@@H]2CCCN2C(=O)[C@H]([C@@H](C)O)NC(=O)CNC(=O)[C@H](CC(=O)O)NC(=O)CNC(=O)[C@H]([C@@H](C)O)NC(=O)[C@H](Cc2ccccc2)NC(=O)[C@H]([C@@H](C)O)NC(=O)[C@H]([C@@H](C)O)NC(=O)[C@H](CCC(=O)O)NC1=O [compound 42] (cyclo(THLETTFTGDGTPKTYRVTQ[dP]GQ))
1.13 | CC[C@H](C)[C@@H]1NC(=O)[C@H]([C@@H](C)O)NC(=O)[C@H](CCCCN)NC(=O)[C@@H]2CCCN2C(=O)[C@H]([C@@H](C)O)NC(=O)CNC(=O)[C@H](CC(=O)O)NC(=O)CNC(=O)[C@H]([C@@H](C)O)NC(=O)[C@H](Cc2ccccc2)NC(=O)[C@H]([C@@H](C)O)NC(=O)[C@H]([C@@H](C)O)NC(=O)[C@H](CCC(=O)O)NC(=O)[C@H](CC(C)C)NC(=O)[C@H](Cc2c[nH]cn2)NC(=O)[C@H]([C@@H](C)O)NC(=O)[C@H](CCC(N)=O)NC(=O)CNC(=O)[C@H]2CCCN2C(=O)[C@H](CCC(N)=O)NC(=O)[C@H]([C@@H](C)O)NC(=O)[C@H](CCCNC(=N)N)NC(=O)[C@H](CCCNC(=N)N)NC1=O [compound 43] (cyclo(THLETTFTGDGTPKTIRRTQ[dP]GQ))
1.06 | CC[C@H](C)[C@@H]1NC(=O)[C@H]([C@@H](C)O)NC(=O)[C@H](CCCCN)NC(=O)[C@@H]2CCCN2C(=O)[C@H]([C@@H](C)O)NC(=O)CNC(=O)[C@H](CC(=O)O)NC(=O)CNC(=O)[C@H]([C@@H](C)O)NC(=O)[C@H](Cc2ccccc2)NC(=O)[C@H]([C@@H](C)O)NC(=O)[C@H]([C@@H](C)O)NC(=O)[C@H](CCC(=O)O)NC(=O)[C@H](CC(C)C)NC(=O)[C@H](Cc2c[nH]cn2)NC(=O)[C@H]([C@@H](C)O)NC(=O)[C@H](CCC(N)=O)NC(=O)CNC(=O)[C@H]2CCCN2C(=O)[C@H](CCC(N)=O)NC(=O)[C@H](CCCNC(=N)N)NC(=O)[C@H](C(C)C)NC(=O)[C@H](CCCNC(=N)N)NC1=O [compound 44] (cyclo(THLETTFTGDGTPKTIRVRQ[dP]GQ))
